Test results from US9179674B2, “Macrocyclic picolinamide compounds with fungicidal activity” (DOW AGROSCIENCES LLC, priority 2013, dated 2015).
Where two headings read alike, the source gives them in different places. Values belong to the molecule of their own block, whether it stands above or below them.

Tests used:
[1] = tested on: Mycosphaerella graminicola; Anamorph: Septoria tritici; test: Leaf Blotch of Wheat fungicidal activity (SEPTTR); type: in vivo; conditions: Zymoseptoria tritici; for pest or weed control at 100 ppm: rate 100 ppm; for pest or weed control at 121.5 g/ha: rate 121.5 g/H
How it was run: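 Acetone solutions diluted with nine volumes of water containing 110 ppm Triton X-100, sprayed to run-off on first-leaf wheat seedlings (Yuma), inoculated with S. tritici before or after treatment. Plants held in dew chambers, then in a 20 °C greenhouse. Disease severity (0–100%) scored when untreated plants fully symptomatic; % control relative to untreated.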

Puccinia triticina = test: Wheat Brown Rust fungicidal activity (PUCCRT); type: in vivo; conditions: Puccinia triticina; for pest or weed control at 100 ppm: rate 100 ppm; for pest or weed control at 121.5 g/ha: rate 121.5 g/H
How it was run: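 Yuma wheat seedlings at first-leaf stage sprayed to run-off (acetone solution in water with 110 ppm Triton X-100) or track-sprayed as EC with 0.1% Trycol 5941; inoculated with P. triticina spores before or after treatment. Overnight dark dew at 22° C., then greenhouse 24° C.; disease severity 0–100% gives percent control vs untreated.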

[2] = 24 h, 1 Day Protectant, read-out: Disease control SEPTTR 1DP
[3] = 72 h, 3 Day Curative, read-out: Disease control SEPTTR 3DC
[4] = 24 h, 1 Day Protectant, read-out: Disease control PUCCRT 1DP
[5] = 72 h, 3 Day Curative, read-out: Disease control PUCCRT 3DC

melting point: 59 to 64 °C
Structure (SMILES): COc1ccnc(C(=O)N[C@H]2COC[C@H](CCc3ccccc3)[C@@H](OCCCC(F)(F)F)[C@H](C)OC2=O)c1OC(C)=O [Compound F49]
pest or weed control at 100 ppm [1, 2]: 80 to 100% | pest or weed control at 121.5 g/ha [1, 2]: 80 to 100% | pest or weed control at 100 ppm [1, 3]: 80 to 100% | pest or weed control at 121.5 g/ha [1, 3]: 80 to 100% | pest or weed control at 100 ppm (Puccinia triticina; [4]): 80 to 100% | pest or weed control at 121.5 g/ha (Puccinia triticina; [4]): 80 to 100% | pest or weed control at 100 ppm (Puccinia triticina; [5]): 80 to 100% | pest or weed control at 121.5 g/ha (Puccinia triticina; [5]): 0 to 80%

melting point: 61 to 65 °C
Structure (SMILES): COc1ccnc(C(=O)N[C@H]2COC[C@H](CCc3ccccc3)[C@@H](OCC(C)C)[C@H](C)OC2=O)c1OC(C)=O [Compound F50]
pest or weed control at 100 ppm [1, 2]: 80 to 100% | pest or weed control at 100 ppm [1, 3]: 80 to 100% | pest or weed control at 100 ppm (Puccinia triticina; [4]): 80 to 100% | pest or weed control at 100 ppm (Puccinia triticina; [5]): 80 to 100%

Structure (SMILES): COc1ccnc(C(=O)N[C@H]2COC[C@H](Cc3cccc4ccccc34)[C@@H](OC(=O)C(C)C)[C@H](C)OC2=O)c1OC(C)=O [Compound F51, (3S,6S,7R,8S)-3-(3-acetoxy-4-methoxypicolinamido)-6-methyl-8-(naphthalen-1-ylmethyl)-4-oxo-1,5-dioxonan-7-yl isobutyrate]
pest or weed control at 100 ppm [1, 2]: 80 to 100% | pest or weed control at 100 ppm [1, 3]: 80 to 100% | pest or weed control at 100 ppm (Puccinia triticina; [4]): 80 to 100% | pest or weed control at 100 ppm (Puccinia triticina; [5]): 0 to 80% | melting point: 104 to 108 °C

melting point: 85 to 91 °C
Structure (SMILES): CCCCCO[C@@H]1[C@@H](Cc2cccc3ccccc23)COC[C@H](NC(=O)c2nccc(OC)c2OC(C)=O)C(=O)O[C@H]1C [Compound F52]
pest or weed control at 100 ppm [1, 2]: 80 to 100% | pest or weed control at 100 ppm [1, 3]: 80 to 100% | pest or weed control at 100 ppm (Puccinia triticina; [4]): 80 to 100% | pest or weed control at 100 ppm (Puccinia triticina; [5]): 0 to 80%

melting point: 88 to 93 °C
Structure (SMILES): COc1ccnc(C(=O)N[C@H]2COC[C@H](Cc3ccc(C)cc3)[C@@H](OC(=O)C(C)C)[C@H](C)OC2=O)c1OC(C)=O [Compound F54]
pest or weed control at 100 ppm [1, 2]: 80 to 100% | pest or weed control at 121.5 g/ha [1, 2]: 80 to 100% | pest or weed control at 100 ppm [1, 3]: 80 to 100% | pest or weed control at 121.5 g/ha [1, 3]: 80 to 100% | pest or weed control at 100 ppm (Puccinia triticina; [4]): 80 to 100% | pest or weed control at 121.5 g/ha (Puccinia triticina; [4]): 80 to 100% | pest or weed control at 100 ppm (Puccinia triticina; [5]): 80 to 100% | pest or weed control at 121.5 g/ha (Puccinia triticina; [5]): 0 to 80%

melting point: 74 to 79 °C
Structure (SMILES): COc1ccnc(C(=O)N[C@H]2COC[C@H](Cc3ccc(F)cc3)[C@@H](OC(=O)C(C)C)[C@H](C)OC2=O)c1OC(C)=O [Compound F56]
pest or weed control at 100 ppm [1, 2]: 80 to 100% | pest or weed control at 100 ppm [1, 3]: 80 to 100% | pest or weed control at 100 ppm (Puccinia triticina; [4]): 80 to 100% | pest or weed control at 100 ppm (Puccinia triticina; [5]): 80 to 100%

melting point: 69 to 73 °C
Structure (SMILES): COc1ccnc(C(=O)N[C@H]2COC[C@H](Cc3ccc(Cl)cc3Cl)[C@@H](OCC(C)C)[C@H](C)OC2=O)c1OC(C)=O [Compound F74]
pest or weed control at 100 ppm [1, 2]: 80 to 100% | pest or weed control at 100 ppm [1, 3]: 80 to 100% | pest or weed control at 100 ppm (Puccinia triticina; [4]): 80 to 100% | pest or weed control at 100 ppm (Puccinia triticina; [5]): 80 to 100%

melting point: 55 to 59 °C
Structure (SMILES): CCCCCO[C@@H]1[C@@H](Cc2ccc(Cl)cc2Cl)COC[C@H](NC(=O)c2nccc(OC)c2OC(C)=O)C(=O)O[C@H]1C [Compound F75]
pest or weed control at 100 ppm [1, 2]: 80 to 100% | pest or weed control at 121.5 g/ha [1, 2]: 80 to 100% | pest or weed control at 100 ppm [1, 3]: 80 to 100% | pest or weed control at 121.5 g/ha [1, 3]: 80 to 100% | pest or weed control at 100 ppm (Puccinia triticina; [4]): 80 to 100% | pest or weed control at 121.5 g/ha (Puccinia triticina; [4]): 80 to 100% | pest or weed control at 100 ppm (Puccinia triticina; [5]): 80 to 100% | pest or weed control at 121.5 g/ha (Puccinia triticina; [5]): 0 to 80%

melting point: 97 to 101 °C
Structure (SMILES): COc1ccnc(C(=O)N[C@H]2COC[C@H](Cc3ccc(Cl)cc3Cl)[C@@H](Oc3ccc(C)cc3)[C@H](C)OC2=O)c1OC(C)=O [Compound F76]
pest or weed control at 100 ppm [1, 2]: 0 to 80% | pest or weed control at 121.5 g/ha [1, 2]: 80 to 100% | pest or weed control at 100 ppm (Puccinia triticina; [4]): 80 to 100% | pest or weed control at 121.5 g/ha (Puccinia triticina; [4]): 80 to 100% | pest or weed control at 121.5 g/ha (Puccinia triticina; [5]): 0 to 80%

melting point: 66 to 69 °C
Structure (SMILES): COc1ccnc(C(=O)N[C@H]2COC[C@H](CC3CCCC3)[C@@H](OC(=O)C(C)C)[C@H](C)OC2=O)c1OC(C)=O [Compound F77]
pest or weed control at 100 ppm [1, 2]: 80 to 100% | pest or weed control at 121.5 g/ha [1, 2]: 80 to 100% | pest or weed control at 100 ppm [1, 3]: 80 to 100% | pest or weed control at 121.5 g/ha [1, 3]: 80 to 100% | pest or weed control at 100 ppm (Puccinia triticina; [4]): 80 to 100% | pest or weed control at 121.5 g/ha (Puccinia triticina; [4]): 80 to 100% | pest or weed control at 100 ppm (Puccinia triticina; [5]): 80 to 100% | pest or weed control at 121.5 g/ha (Puccinia triticina; [5]): 80 to 100%

melting point: 56 to 59 °C
Structure (SMILES): COc1ccnc(C(=O)N[C@H]2COC[C@H](CC3CCCC3)[C@@H](OCC(C)C)[C@H](C)OC2=O)c1OC(C)=O [Compound F78]
pest or weed control at 100 ppm [1, 2]: 80 to 100% | pest or weed control at 100 ppm [1, 3]: 80 to 100% | pest or weed control at 100 ppm (Puccinia triticina; [4]): 80 to 100% | pest or weed control at 100 ppm (Puccinia triticina; [5]): 80 to 100%
